Measured values as given in paper PMC5787466, “Accelerated bottom-up drug design platform enables the discovery of novel stearoyl-CoA desaturase 1 inhibitors for cancer therapy” (Oncotarget, 2017).

Tests used:
Caki1 = assay: Proliferation dose-response IC50, Caki1; assay type: cell-based; settings: Homo sapiens, CAKI-1; proliferative IC50, linear regression modeling of dose-response
Description: (§1) Error bars indicate standard deviation for n=2 replicates. […] To evaluate inhibition of SCD1 by these molecules, we used LC/MS to quantify changes in SCD1-catalyzed conversion of stearoyl-CoA to oleoyl-CoA in response to drug treatments in vitro using SCD1 protein extracted from murine liver (Figure 3c, Supplementary Figure 2g). […] Synthesis routes and spectral data including NMR and MS are also provided (Supplementary Figures 3-6).
(§2) Cells were seeded at 5,000 cells/well in clear-bottom 96-well plates in triplicate. Drug treatment was applied at 1:1000 in reduced serum conditions (3%). […] Alternatively, cells were plated 2x10^5/well in 12-well plates (Genesee Scientific) in triplicate prior to drug treatment. After 120-hour treatment, cell number was established using a Coulter Particle Counter (Beckman). Oleic acid-albumin (Sigma Aldrich) was added to media at 5µM, and was applied adjuvant to drug treatment. Drug stocks were prepared in DMSO (Sigma) at 1000x. IC50 dosing per cell line was calculated using CalcuSyn analytical software.

Caki2 = assay: Proliferation dose-response IC50, Caki2; assay type: cell-based; settings: Homo sapiens, CAKI-2; proliferative IC50, linear regression modeling of dose-response
Description: as §1, §2

RCC cell lines = assay: Proliferation assay with exogenous oleic acid (OA) rescue; assay type: cell-based, Human; settings: cells treated with proliferative IC50 dose, 72 hour, OA 5µg/mL
Source text: Induction of the unfolded protein response (UPR) is a known biological response to SCD1 inhibition in tumor cells. […] The addition of exogenous OA was sufficient to reverse the activation of ATF6 (Figure 4b). Moreover, exogenous OA inhibited SSI-(1-4) mediated upregulation of the UPR markers BiP (heat shock 70 kDa protein) and CHOP (damage inducible transcript 3) protein levels in both A498 and ACHN cells (Figure 4c). Collectively these findings confirm that SSI-(1-4) reliably recapitulates the biological responses observed in tumor cells treated with known SCD1 inhibitors. […] Thus, SSI-4 is not predicted to have any major off-target effects through kinase inhibition (Supplementary Figures 7 and 8).
Results are presented as relative bioluminescence (BLI). […] Beta-actin is used as a loading control. (d) Proliferative response in patient-derived normal cells, and established tumor cell lines to treatment with MF-438 or SSI-(1-4).
Cells were seeded at 5,000 cells/well in clear-bottom 96-well plates in triplicate. Drug treatment was applied at 1:1000 in reduced serum conditions (3%). After 72 hours, cells were washed with PBS, and stored at -80 °C prior to analysis using CyQuant® Proliferation Analysis Kit (Invitrogen) er manufacturers’ protocol for relative fluorescence units. […] IC50 dosing per cell line was calculated using CalcuSyn analytical software.

ACHN = assay: Proliferation dose-response IC50, ACHN; assay type: cell-based; settings: Homo sapiens, proliferative IC50, linear regression modeling of dose-response
Description: as §1, §2

A498 = assay: Proliferation dose-response IC50, A498; assay type: cell-based; settings: Homo sapiens, proliferative IC50, linear regression modeling of dose-response
Description: as §1, §2

SCD1 = settings: known inhibitor, no reference given; cited from earlier work
[1] = target: T1, SCD1 protein extracted from murine liver (Mus musculus, UniProt P13516); assay: In vitro SCD1 enzymatic inhibition by LC/MS (stearoyl-CoA to oleoyl-CoA, liver microsomes); assay type: biochemical; settings: n=2
T1 construct: Microsomes were isolated from murine liver using Microsome Isolation Kit (BioVision); from tissue; host or cells: murine liver microsomes
T1 sequence (P13516 1-355): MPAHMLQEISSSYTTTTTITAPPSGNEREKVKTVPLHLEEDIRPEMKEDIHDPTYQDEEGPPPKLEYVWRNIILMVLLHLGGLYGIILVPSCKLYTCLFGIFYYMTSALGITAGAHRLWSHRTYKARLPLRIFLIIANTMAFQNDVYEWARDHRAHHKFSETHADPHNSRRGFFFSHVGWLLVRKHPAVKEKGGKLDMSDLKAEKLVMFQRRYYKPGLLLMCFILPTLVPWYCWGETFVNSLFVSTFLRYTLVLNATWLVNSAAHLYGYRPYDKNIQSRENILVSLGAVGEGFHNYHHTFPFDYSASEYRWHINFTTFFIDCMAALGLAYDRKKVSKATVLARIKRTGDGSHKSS
Source text: as §1, with “After synthesis feasibility and cost analysis, we synthesized 38 of the selected compounds.” for “Error bars indicate standard deviation for n=2 replicates.”
Microsomes were isolated from murine liver using Microsome Isolation Kit (BioVision) per the manufacturer protocol. […] To quantify biotransformation of ^13C18-stearoyl CoA to ^13C18-oleoyl CoA for drug treatments relative to vehicle controls, supernatants were evaluated using the LC/MS^2 acyl CoA quantitation method of Magnes et al. and adapting selected reaction monitoring (SRM) for isotope-labeled acyl CoAs. […] SRM signal areas for isotope-labeled acyl CoAs were measured relative to the heptadecanoyl CoA I.S. using XCalibur software (Thermo), and percent enzyme inhibition determined by comparing ^13C18-oleoyl CoA quantities between treatment and DMSO control assays. […]

SMILES: CNC(=O)COc1cncc(C(=O)N2CC[C@H](Oc3ccccc3Cl)C2)c1 [ChemBL375265, reference compound]
- IC50 (Caki1): 1 µM
- IC50 (Caki2): 0.5 µM
- rescue of proliferation by exogenous oleic acid (OA) (RCC cell lines): fully restored proliferation
- IC50 (ACHN): 0.08 µM
- IC50 (A498): 5 µM
- IC50 (SCD1): 400 nM

SMILES: Cc1nnc(-c2ccc(N3CCC(Oc4ccccc4C(F)(F)F)CC3)nn2)s1 [MF-438, 2-methyl-5-(6-(4-(2-(trifluoromethyl)phenoxy)piperidin-1-yl)pyridazin-3-yl)-1,3,4-thiadiazole, reference compound]
- IC50 (Caki1): 0.007 µM
- IC50 [1]: 1.1 nM
- IC50 (Caki2): 0.012 µM
- rescue of proliferation by exogenous oleic acid (OA) (RCC cell lines): fully restored proliferation
- IC50 (ACHN): 0.006 µM
- IC50 (A498): 0.008 µM
